We go through two compounds from US20260355094A1, “COMBINATION OF AN ORGANOSILICON COMPOUND WITH A CROSSLINKED GLYCOSAMINOGLUCAN FOR PREVENTING AND REPAIRING CUTANEOUS AGEING” (LABORATOIRES FILL-MED MANUFACTURING, priority 2022, published 2026).

The test system of one assay is elastin. As to conditions: in combination with resveratrol; human skin fibroblasts; cited from earlier work.
The test system of a further assay is collagen type I. As to conditions: in combination with resveratrol; human skin fibroblasts; cited from earlier work.
Assay [1] has as its system hyaluronan synthase type 2 (HAS2). As to conditions: in combination with resveratrol; human skin fibroblasts; cited from earlier work.
The subject of another assay is fibroblasts. Description: Contractile force of fibroblasts in equivalent dermis (Glassbox system). The class given is cell-based. As to conditions: 2.5 ng/ml, positive contraction control. The protocol: AFU+Si was tested to evaluate the effect on contractile force of fibroblasts in a Glassbox system, when compared to Si and AFU.
An equivalent dermis was developed in a culture box consisting of eight rectangular tanks. In each tank, two flexible blades were plunged, the lower parts of which were made up of grids on which the equivalent dermis clang during its polymerization. The equivalent dermis developed between the two blades to result in a rectangular shape slightly narrowed in the center.
Under the influence of the contraction forces developed by fibroblasts, the blades were deformed. Their deformation was measured in real time using optical fibers and adapted software. The deformation was proportional to the force developed within the equivalent dermis.
Prior to the test for contractile force, different concentrations of products diluted in cellular culture medium were tested for cellular viability. Among these, the following concentrations were chosen for the contractile force test: 0.005%, 0.05%, 0.0005% and 0.0025%.

Take `C[SiH2]O.O=C[C@@H](O)[C@@H](O)[C@H](O)[C@H](O)C(=O)O` [methylsilanol mannuronate]: in the assay with elastin, the “expression of elastin gene” value is “promoting the expression”. Also, in the assay on collagen type I, the “expression of collagen type I gene” value is “promoting the expression”. Also, in assay [1], the “expression of hyaluronan synthase type 2 (HAS2) gene” value is on record as “promoting the expression”.

On to “TGFβ1: used as a positive contraction control”, for which, in the assay on fibroblasts, the contractile forces entry was “significant increase in contractile forces”.
